Measured values taken from patent US9283257B2, “Compositions comprising solanum tuberosum for lowering cytosolic NADH level to mimic calorie restriction” (Nox Technologies, Inc., priority 2009, dated 2016).
Where two headings read alike, the source gives them in different places.

Tested on: NADH levels in yeast
Assay: yeast NADH autofluorescence assay
Type: cell-based, Saccharomyces cerevisiae
Text: Reduced forms of NAD(P)H show fluorescence with peaks of excitation and emission in the regions of 340 and 450 nm, respectively, that are used to monitor changes in cytosolic NAD(P)H levels. Because oxidized forms of these pyridine nucleotides have minimal fluorescence at this wavelength, a specific strain of Saccharomyces cerevisiae is used as the primary indicator and the assay is set up in a […] microtiter plate format. Fluorescence measurements are taken with an automated plate reader after 2 h of incubation in the presence of at least three log dilutions of the candidate calorie restriction mimic under investigation.
A 10 mL culture of S. cerevisiae (wild type-BY4741, available from American Type Culture Collection, Manassas, Va., ATCC Number 201388) Genotype/ORF/Gene MATa his3delta1 leu2delta0 met15delta0 ura3delta0. The yeast cells are grown overnight in Yeast Extract Peptone Dextrose (YEPD) liquid medium at 30 C with shaking. OD600 of the culture should be between 0.800 and 1.000 prior to assay usage. To remove unwanted autofluorescence, the medium components are removed by the following process.
Aliquots of the yeast culture are transferred to individual 1 mL micro-centrifuge tubes, and the yeast are pelleted in a bench-top centrifuge by spinning at 1000 RPM for 10 min. Excessive centrifugation speeds (over 1000 rpm) are not used because they could damage the yeast; and live yeast are required for the assay. The medium is decanted, and the yeast are resuspended in an equal volume of 1× phosphate buffered saline (137 mM NaCl, 2.7 mM KCl, 10 mM Na2HPO4, 1.76 mM KH2PO4, pH 7.4) and 7.5 mM glucose (PBSG). […] This preparation of yeast is used in the subsequent auto-fluorescence measurements at an optical density (bulk turbidity) at 600 nm between 0.8 and 1.0.
For fluorescence reading samples are added to a black 96 well cell culture plate. […] A single well of each compound or preparation 5 μL+100 μL of 1×PBSG should be added to account for the fluorescence due to additive.
Experiments are conducted using a Fluoroskan II (Titer-Tek) fluorescent plate reader, which is controlled by Genesis software v 2.0 and used in accordance with the manufacturer' instructions. […] These parameters include a) type—whether the measurement is a single measurement or series of measurement over a given time (kinetic), b) excitation and emission wavelengths (for NADH autofluorescence the excitation wavelength is 340 nm and the emission wavelength is 450 nm.) c) interval at which measurements should be taken (every 20 seconds is sufficient) d) duration of each reading which is set at 5 sec per well, and e) the duration of the measurement which is set to 1 hr. […]

How did the EC50 (yeast system; read-out: Concentration of known stimulators of NADH oxidation to increase NADH consumption by 50% in the yeast system) turn out when `CC1(C)CCC2=C(O1)c1ccccc1C(=O)C2=O` [β-Lapachrone] was run?
Its EC50 is 40 µM.

Which EC50 (Saccharomyces cerevisiae, read-out: Concentration of known stimulators of NADH oxidation to increase NADH consumption by 50% in the yeast system) does the source give for `O=C(O)CC(=O)C(=O)O` [Oxaloacetic acid] here?
The EC50 was 20 µM.

For `O=CC[C@@H](O)[C@H](O)[C@H](O)CO` [2-Deoxyglucose, 2-deoxy-D-glucose], which EC50 (Saccharomyces cerevisiae; read-out: Concentration of known stimulators of NADH oxidation to increase NADH consumption by 50% in the yeast system) is on record?
The EC50 was 2000 µM.

And the “cytosolic NADH levels” value (glucose of the yeast culture medium replaced with 2DG)?
The value was “reduced”.
